Patent US20220282217A1, “COMPOSITIONS AND METHODS FOR PREPARING T CELL COMPOSITIONS AND USES THEREOF” (priority 2019, published 2022)
Like-named read-outs stand apart in the source and are kept apart here. Where a SMILES comes first, the peptide text is derived from it.

Assays:
HLA-A02.01 [1] = target: T1, HLA-A02.01 (Homo sapiens, UniProt P04439, D140Y/D185E/D98H/E176V/E277Q/G131W/G231S/I119V/I121R/I166T/I218V/N151K/N90K/P208A/P217A/Q86G/Q94H/R138H/R169H); experiment: Class I MHC peptide binding stability (pMHC-I dissociation, 125I-labeled light chain); conditions: allele A02.01
T1 construct: made in house; host or cells: E. coli

HLA-A24.02 [2] = experiment: as above; parameters: species or system human; conditions: allele A24.02
HLA-A24.02 [3] = experiment: Class I MHC peptide binding affinity (displacement of radiolabeled reference peptide); parameters: species or system human; conditions: allele A24.02; read-out: Observed Affinity (IC50; (nM))
HLA-A02.01 [4] = target: HLA-A02.01 (Homo sapiens, UniProt P04439, D140Y/D185E/D98H/E176V/E277Q/G131W/G231S/I119V/I121R/I166T/I218V/L300P/L318F/N151K/N90K/P208A/P217A/Q86G/Q94H/R138H/R169H/T345S); experiment: as above; conditions: allele A02.01, (nM))
Outline: (§1)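 Steps: form MHCI complexes carrying labeled reference peptide; add competitor peptides at graded doses; incubate 2 days; separate complex-bound from free label by size-exclusion chromatography and count what remains bound.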

HLA-B07.02 [5] = target: T2, HLA-B07.02 (Homo sapiens, UniProt P01889); experiment: as above; conditions: Allele B07.02; read-out: Observed Affinity (IC50; (nM))
HLA-B07.02 [6] = target: T2, HLA-B07.02; experiment: Class I MHC peptide binding stability (pMHC-I dissociation, 125I-labeled light chain); parameters: made in house; host or cells: E. coli; conditions: Allele B07.02
HLA-B08.01 = HLA-B08.01 (Homo sapiens, UniProt P01889, A93T/A95T/D138N/E176V/E187T/K202T/Q94N/R180D/S35A/V36M/Y33D/Y91F); experiment: Class I MHC peptide binding affinity (displacement of radiolabeled reference peptide)
Outline: as §1

HLA-A03.01 = HLA-A03.01 (Homo sapiens, UniProt P04439); experiment: as above; conditions: allele A03.01; read-out: Observed Affinity (IC50; (nM))
HLA-A01.01 = HLA-A01.01 (Homo sapiens, UniProt P04439, A114D/A174V/A182V/D101N/D185E/E176A/E190D/L180R/Q94H/R68K/S129P/T187R/V100A/V91M/W191G); experiment: as above; conditions: allele A01.01; read-out: Observed Affinity (IC50; (nM))
Outline: as §1

[7] = read-out: Observed Affinity (IC50

| SMILES | Stability (T1/2 (h)) (HLA-A02.01 [1]) | Stability (T1/2 (h)) (HLA-A24.02 [2]) | IC50 (HLA-A24.02 [3]) | IC50 (HLA-A02.01 [4]; [7]) | Stability (T1/2 (h)) (HLA-B07.02 [6]) | also measured |
| --- | --- | --- | --- | --- | --- | --- |
| CC(C)C[C@H](NC(=O)[C@H](CC(C)C)NC(=O)[C@H](CC(C)C)NC(=O)CNC(=O)[C@H](Cc1ccc(O)cc1)NC(=O)[C@H](CC(C)C)NC(=O)[C@@H]1CCCN1C(=O)[C@@H](NC(=O)[C@@H](N)C(C)C)C(C)C)C(=O)O | 0.6 h | 0.8 h | 658 nM | 1040 nM |  |  |
| CC[C@H](C)[C@H](NC(=O)[C@H](CCCCN)NC(=O)[C@H](C)NC(=O)[C@@H](NC(=O)[C@@H](N)CCCNC(=N)N)C(C)C)C(=O)N[C@@H](C)C(=O)N[C@@H](CC(=O)O)C(=O)N[C@@H](Cc1ccccc1)C(=O)NCC(=O)N[C@@H](CCSC)C(=O)O (H-RVAKIADFGM-OH; N-terminus and C-terminus assumed) | 0.5 h |  |  | 125 nM | 0.2 h | IC50 (HLA-B07.02 [5]): 9720 nM |
| CC(C)C[C@H](N)C(=O)N[C@@H](C)C(=O)N[C@H](C(=O)N[C@@H](CCC(=O)O)C(=O)N[C@@H](CCCCN)C(=O)N[C@@H](CO)C(=O)N[C@@H](CCCNC(=N)N)C(=O)N[C@@H](Cc1c[nH]c2ccccc12)C(=O)N[C@@H](CO)C(=O)NCC(=O)O)[C@@H](C)O (H-LATEKSRWSG-OH; N-terminus and C-terminus assumed) |  |  |  |  |  | IC50 (HLA-B08.01): 46600 nM; IC50 (HLA-A02.01 [4]; Observed Affinity (IC50): 23300 nM |
| CC(C)C[C@H](N)C(=O)N1CCC[C@H]1C(=O)N[C@@H](CCCNC(=N)N)C(=O)N[C@@H](CCCCN)C(=O)N1CCC[C@H]1C(=O)N[C@H](C(=O)N[C@@H](CCCNC(=N)N)C(=O)N[C@@H](C)C(=O)N[C@@H](C)C(=O)O)[C@@H](C)O |  |  |  |  | 5.5 h |  |
| CC[C@H](C)[C@H](NC(=O)[C@H](CO)NC(=O)[C@H](Cc1c[nH]c2ccccc12)NC(=O)[C@H](Cc1c[nH]cn1)NC(=O)[C@H](C)NC(=O)[C@@H]1CCCN1C(=O)[C@H](CCSC)NC(=O)[C@H](CC(C)C)NC(=O)[C@@H](N)CO)C(=O)O | 5 h | 0.4 h | 633 nM | 48 nM |  |  |
| CC(C)C[C@H](NC(=O)[C@H](C)NC(=O)[C@@H](NC(=O)[C@H](CCCNC(=N)N)NC(=O)[C@H](CO)NC(=O)[C@H](CC(=O)O)NC(=O)[C@H](CO)NC(=O)[C@H](CC(C)C)NC(=O)[C@@H](N)CCCCN)[C@@H](C)O)C(=O)O [KLSDSRTAL] | 2.8 h |  |  |  | 6.8 h |  |
| C[C@H](NC(=O)[C@H](CO)NC(=O)[C@H](C)NC(=O)[C@@H]1CCCN1C(=O)[C@H](C)NC(=O)[C@@H]1CCCN1C(=O)[C@H](CCCNC(=N)N)NC(=O)[C@@H]1CCCN1C(=O)[C@@H](N)Cc1c[nH]cn1)C(=O)O |  |  |  |  | 4.9 h |  |
| CC(C)C[C@H](NC(=O)[C@H](Cc1ccccc1)NC(=O)[C@H](CO)NC(=O)[C@H](CC(C)C)NC(=O)[C@@H](N)CS)C(=O)N[C@@H](CO)C(=O)N[C@@H](CO)C(=O)N[C@@H](Cc1c[nH]c2ccccc12)C(=O)N[C@@H](CC(=O)O)C(=O)N[C@@H](Cc1ccc(O)cc1)C(=O)O (H-CLSFLSSWDY-OH; N-terminus and C-terminus assumed) |  |  |  |  |  | IC50 (HLA-A03.01): 2710 nM; IC50 (HLA-A01.01): 987 nM |
| CC[C@H](C)[C@H](NC(=O)[C@H](Cc1ccccc1)NC(=O)[C@H](CCCNC(=N)N)NC(=O)[C@@H]1CCCN1C(=O)[C@H](CC(C)C)NC(=O)[C@@H](N)CO)C(=O)N[C@@H](CC(C)C)C(=O)N[C@@H](CCSC)C(=O)N[C@@H](CCC(=O)O)C(=O)N[C@@H](CC(C)C)C(=O)O | 0.5 h | 0.2 h | 2770 nM | 26 nM | 0.4 h |  |
| CC(C)C[C@H](N)C(=O)N1CCC[C@H]1C(=O)N[C@@H](CCCNC(=N)N)C(=O)N[C@@H](CCCCN)C(=O)N1CCC[C@H]1C(=O)N[C@H](C(=O)N[C@@H](CCCNC(=N)N)C(=O)N[C@@H](C)C(=O)N[C@@H](C)C(=O)N[C@H](C(=O)O)[C@@H](C)O)[C@@H](C)O (H-LPRKPTRAAT-OH; N-terminus and C-terminus assumed) |  |  |  |  | 3.7 h | IC50 (HLA-B07.02 [5]): 3 nM |
